Assay results from patent publication EP4548971A1, “1,4-BENZOTHIAZEPINES AND RELATED COMPOUNDS WITH CYCLOPROPANOL GROUPS AS MULTI-TARGETED DRUGS” (Georg-August-Universität Göttingen Stiftung Öffentlichen …, priority 2023, dated 2025).

Tests used:
[1] = system: RyR2-WT iPSC cardiomyocytes; assay: Electrically induced Ca2+ transients in intact iPSC-derived cardiomyocytes, RyR2-WT; format: cell-based, human; settings: estimated from non-linear fit; for IC50: read-out: IC50 values for the rise times of Ca2+ transients
From the text: (§1) • Figure 1: Synthesis scheme showing the synthesis of multifunctional compounds with cyclopropanol residues based on 1,4 -benzothiazepines. The respective reaction conditions […] are as follows: (a) Jones reagent, aceton; (b) H2SO4, EtOH; (c) EtMgBr, Ti(OiPr)4, EtzO; (d) t-BuMe2SiOSO2CF3, 2,6-lutidine, DCM; (e) Hz, Pd/C, THF; (f) Dess-Martin reagent, DCM; (g) K2CO3, 1,4-dioxane; (h) N2H4*H2O, EtOH; (i) Na(CH3COO)3BH, 1,2-dichloroethane; (j) NaH, DMF; (k) aq. HF (55%), MeCN or 1 M n-Bu4NF in THF or KF, Et3N*HCl, MeOH. m,n = 2-8. • Figure 2: Synthesis scheme showing the synthesis of multifunctional compounds with cyclopropanol residues based on the "open" analogs 1,4 -benzothiazepines (i.e. 3-[(4-methoxyphenyl)oxy]-and 3-[(4-methoxyphenylthio)]propane-1-amine derivatives). […] Values represent the mean ± S.D., *** P < 0.0005, **** P < 0.0001 vs. DMSO by unpaired t test; n = 6 - 28. • Figure 6: Time-lapse fluorescence measurements using TECAN Spark 20M plate reader with HEK293 cells expressing WT RyR2 and R-CEPIA1er indicator. (a) R-CEPIA1er assay, control (0.1 v/v% DMSO) or 100 µM of compound 14a was injected at 90 seconds (arrow). Fluorescence ratio F/F0, where F0 - average fluorescence signal for the first 90 seconds, F- average fluorescence signal for the last 100 s, was taken for the calculations. (b-d) Dose-response effects of compounds 13 and 14 on [Ca^2+]ER in HEK293-RyR2-R-CEPIA1er cells. […] Data sets were analyzed by unpaired Student's t-test. n.s. non-significant with P=0.59 for Dan, **, P<0.01 with P=0.003 for S36, and *, P<0.05 with P=0.019 for GM1869; (D, E, F) Relative changes in the decay time tau of Ca2+ transients from spontaneous Ca2+ waves (in control/drug) by Dan (D, 10µM), S36 (E, 10 µM), and GM1869 (F, 10 µM) in cardiomyocytes from WT and RyR2R2474S/+ mice. […] Rise times represent the tau values calculated by a mono-exponential fit of the Ca2+ transients from start to the peak of the signal. Ca2+ transients were recorded in control conditions and every 2 min (S36) or 4 min (GM1869) after drug application. **, P = 0.0065 for S36; ****, P = 0.000019 for GM1869, evaluated by paired Student's t-test. […] Decay times represent the tau values calculated by a mono-exponential fit of the Ca2+ transients from half maximum to baseline of the signal. Ca2+ transients were recorded in control conditions and every 2 min (S36) or 4 min (GM1869) after drug application. Data sets were analyzed by paired Student's t-test. n.s., P = 0.14; **, P = 0.0043. […] Data from each experiment were normalized to the first transient recorded. […]

[2] = system: saponin-permeabilized ventricular cardiomyocytes (sp-vCM) from RyR2R2474S/+ mice; assay: Ca2+ wave decay in saponin-permeabilized ventricular cardiomyocytes, RyR2R2474S/+ mice; format: cell-based; settings: 10 µM, result in words
From the text: (§2) • Figure 1: Synthesis scheme showing the synthesis of multifunctional compounds with cyclopropanol residues based on 1,4 -benzothiazepines. The respective reaction conditions (a) to (i) are as follows: (a) Jones reagent, aceton; (b) H2SO4, EtOH; (c) EtMgBr, Ti(OiPr)4, EtzO; (d) t-BuMe2SiOSO2CF3, 2,6-lutidine, DCM; (e) Hz, Pd/C, THF; (f) Dess-Martin reagent, DCM; (g) K2CO3, 1,4-dioxane; (h) N2H4*H2O, EtOH; (i) Na(CH3COO)3BH, 1,2-dichloroethane; (j) NaH, DMF; (k) aq. HF (55%), MeCN or 1 M n-Bu4NF in THF or KF, Et3N*HCl, MeOH. m,n = 2-8. • Figure 2: Synthesis scheme showing the synthesis of multifunctional compounds with cyclopropanol residues based on the "open" analogs 1,4 -benzothiazepines (i.e. 3-[(4-methoxyphenyl)oxy]-and 3-[(4-methoxyphenylthio)]propane-1-amine derivatives). […] Values represent the mean ± S.D., *** P < 0.0005, **** P < 0.0001 vs. DMSO by unpaired t test; n = 6 - 28. • Figure 6: Time-lapse fluorescence measurements using TECAN Spark 20M plate reader with HEK293 cells expressing WT RyR2 and R-CEPIA1er indicator. […] Fluorescence ratio F/F0, where F0 - average fluorescence signal for the first 90 seconds, F- average fluorescence signal for the last 100 s, was taken for the calculations. […] Data sets were analyzed by unpaired Student's t-test. n.s. non-significant with P=0.59 for Dan, **, P<0.01 with P=0.003 for S36, and *, P<0.05 with P=0.019 for GM1869; (D, E, F) Relative changes in the decay time tau of Ca2+ transients from spontaneous Ca2+ waves (in control/drug) by Dan (D, 10µM), S36 (E, 10 µM), and GM1869 (F, 10 µM) in cardiomyocytes from WT and RyR2R2474S/+ mice. […] Rise times represent the tau values calculated by a mono-exponential fit of the Ca2+ transients from start to the peak of the signal. Ca2+ transients were recorded in control conditions and every 2 min (S36) or 4 min (GM1869) after drug application. **, P = 0.0065 for S36; ****, P = 0.000019 for GM1869, evaluated by paired Student's t-test. […] Decay times represent the tau values calculated by a mono-exponential fit of the Ca2+ transients from half maximum to baseline of the signal. […]

[3] = system: RyR2-R2474S+/- iPSC cardiomyocytes; assay: Electrically induced Ca2+ transients in intact iPSC-derived cardiomyocytes, RyR2-R2474S+/-; format: cell-based, human; settings: estimated from non-linear fit; for IC50: read-out: IC50 values for the rise times of Ca2+ transients
From the text: as §1

[4] = system: saponin-permeabilized ventricular cardiomyocytes (sp-vCM) from WT mice; assay: Ca2+ wave decay in saponin-permeabilized ventricular cardiomyocytes, WT mice; format: cell-based; settings: 10 µM, result in words
From the text: as §2

[5] = Homo sapiens, iPSC, read-out: EC50 values for the decay times of Ca2+ transients

`COc1ccc2c(c1)CN(C(=O)C(=O)O)CCS2` [Compound S36, reference compound] was tested, and the IC50 ([1]; Homo sapiens, iPSC) was 0.15 nM, the “EC50 values for the decay times of Ca2+ transients” value [1] was “no EC50 values were obtained” and the “Relative changes in the decay time tau of Ca2+ transients from spontaneous Ca2+ waves (in control/drug)” value (from here on “Relative changes … (in control/drug)”) [2] was “not significantly different from 1”. For the same compound, the IC50 ([3]; Homo sapiens, iPSC) was 0.04 nM, the “EC50 values for the decay times of Ca2+ transients” value [3] was “no EC50 values were obtained” and the “Relative changes … (in control/drug)” value [4] was “not significantly different from 1”.
In the case of `COc1ccc2c(c1)CN(CCCCN(CCCCC1(O)CC1)CCCCC1(O)CC1)CCS2` [Compound 14a, 1,1'-(((4-(7-Methoxy-2,3-dihydrobenzo[1,4-f]thiazepin-4(5H)-yl)butyl)azanediyl)bis(butane-4,1-diyl))bis(cyclopropan-1-ol)], the EC50 [1, 5] is reported as 0.097 nM, the IC50 ([1]; Homo sapiens, iPSC) is reported as 0.025 nM and the “Relative changes … (in control/drug)” value [2] is reported as “significantly below 1”. For the same compound, the EC50 [3, 5] was 0.071 nM, the IC50 ([3]; Homo sapiens, iPSC) was 0.045 nM and the “Relative changes … (in control/drug)” value [4] was “significantly below 1”.
